Assay [1] deals with T1, Prostaglandin G/H synthase 1 (Ovis aries) (UniProt P05979).
T1 sequence (whole entry): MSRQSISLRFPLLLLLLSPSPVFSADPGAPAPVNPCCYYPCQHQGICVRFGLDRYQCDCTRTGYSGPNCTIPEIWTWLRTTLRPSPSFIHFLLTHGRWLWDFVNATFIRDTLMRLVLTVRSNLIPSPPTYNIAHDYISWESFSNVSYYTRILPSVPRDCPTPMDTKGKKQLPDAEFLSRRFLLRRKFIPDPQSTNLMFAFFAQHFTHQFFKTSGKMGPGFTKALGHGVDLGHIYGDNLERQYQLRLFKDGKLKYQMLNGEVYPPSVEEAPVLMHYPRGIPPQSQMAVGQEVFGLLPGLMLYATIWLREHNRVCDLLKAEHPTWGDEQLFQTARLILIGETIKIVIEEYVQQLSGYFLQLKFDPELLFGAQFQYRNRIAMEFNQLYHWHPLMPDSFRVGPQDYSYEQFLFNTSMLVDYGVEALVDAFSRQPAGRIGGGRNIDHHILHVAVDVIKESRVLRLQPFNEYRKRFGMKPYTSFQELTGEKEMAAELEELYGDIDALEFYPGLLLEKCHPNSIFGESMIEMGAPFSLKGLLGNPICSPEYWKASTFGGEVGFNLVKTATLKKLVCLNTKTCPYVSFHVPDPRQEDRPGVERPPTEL
To be noted: Seminal vesicle, Microsome, 5 uM.
Description: Inhibition of COX1 in ram seminal vesicle microsomes assessed as reduction of PGE2 formation at 5 uM

Assay [2] concerns the target T2, Prostaglandin G/H synthase 1 (Ovis aries, UniProt P05979).
T2 sequence (P05979 whole entry): T1 sequence (whole entry)
Description: Inhibition of COX1 in ram seminal vesicle microsomes assessed as reduction of PGE2 formation. Also on record: species or system Microsome.

Molecule `COc1ccc2c(c1)c(CC(=O)O)c(C)n2C(=O)c1ccc(Cl)cc1` displayed an inhibition in assay [1] of 0.2%. Turning to `COc1cc2c(c3c1C=COC=C3)O[C@@H](C(C)(C)O)C2` [PERILLOXIN], the IC50 in assay [2] was determined as 23.2 µM. The same measure, in the same setting: next, `COc1cc2cc(C(C)(C)O)oc2c2c1C=COC=C2`: 30.4 µM.

Values taken from ChEMBL document CHEMBL1154552, “Two new prenylated 3-benzoxepin derivatives as cyclooxygenase inhibitors from Perilla frutescens var. acuta” (J Nat Prod, 2000).
